Measured values as given in patent publication US20050032187A1, “Novel peptide-forming enzyme, microbe producing the enzyme and method for producing peptide using them” (Ajinomoto Co., Inc., priority 2003, published 2005).
Residues, ends and D or L forms follow the SMILES beside them.

Test system: Sphingobacterium sp. strain FERM BP-8124 microbial cells
Experiment: Production of L-alanyl-L-glutamine using microbial cells of Sphingobacterium sp.
Format: cell-based
Conditions: 0.1 mL of 100 g/L cell suspension + 0.1 mL buffer with 200 mM L-alanyl methyl ester hydrochloride and 400 mM L-glutamine, pH 9.0, 25° C., 120 minutes
Procedure: A 50 ml medium (pH 7.0) containing 5 g of glucose, 5 g of ammonium sulfate, 1 g of monopotassium phosphate, 3 g of dipotassium phosphate, 0.5 g of magnesium sulfate, 10 g of yeast extract and 10 g of peptone in 1 L was transferred to a 500 mL Sakaguchi flask and sterilized at 115° C. for 15 minutes for culturing Sphingobacterium sp. strain FERM BP-8124 (Depositary institution: National Institute for Advanced Industrial Science and Technology, International Patent Organism Depositary, Address of depositary institution: Chuo Dai-6,1-1 Higashi 1-Chome, Tsukuba-shi, Ibaraki-ken, Japan, International deposit date: Jul. 22, 2002). This medium was then inoculated with one loopful of Sphingobacterium sp. strain FERM BP-8124 (Depositary institution: National Institute for Advanced Industrial Science and Technology, International Patent Organism Depositary, Address of depositary institution: Chuo Dai-6,1-1 Higashi 1-Chome, Tsukuba-shi, Ibaraki-ken, Japan, International deposit date: Jul. 22, 2002) cultured at 30° C. for 24 hours in a slant agar medium (agar: 20 g/L, pH 7.0) containing 5 g of glucose, 10 g of yeast extract, 10 g of peptone and 5 g of NaCl in 1 L, followed by shake culturing at 30° C. for 20 hours and 120 strokes/minute. A 1 ml aliquot of this culture broth was then added to the aforementioned medium (50 ml/500 mL Sakaguchi flask) and cultured at 30° C. for 18 hours. […]

Molecule | amount of L-alanyl-L-glutamine produced
C[C@H](N)C(=O)N[C@@H](CCC(N)=O)C(=O)O [L-Ala-L-Gln, L-alanyl-L-glutamine] (H-Ala-Gln-OH) | 62 mM

Test system: Empedobacter brevis strain FERM BP-8113 microbial cells
Experiment: Production of peptide using microbial cells of Empedobacter brevis
Format: cell-based
Conditions: 1 mL of 100 g/L cell suspension + 1 mL buffer with 200 mM carboxy component (HCl salt) and 400 mM amino acid, 10 mM EDTA, pH 9.0, 18° C., 2 hours
Procedure: Although the following provides a more detailed explanation of the present invention through its examples, the present invention is not limited to these examples. In addition to confirmation by ninhydrin coloring of thin-film chromatograms (qualitative), quantitative determinations were made by the following high-performance liquid chromatography in order to assay products. Column: […] ODS-2 (manufactured by GL Science, Inc.), eluate: aqueous phosphate solution containing 5.0 mM sodium 1-octanesulfonate (pH 2.1): methanol=100: 15 to 50, flow rate: 1.0 mL/min, detection: 210 nanometers (hereinafter, “nm”). A 50 mL medium (pH 6.2) containing 5 grams (hereinafter, “g”) of glucose, 5 g of ammonium sulfate, 1 g of monopotassium phosphate, 3 g of dipotassium phosphate, 0.5 g of magnesium sulfate, 10 g of yeast extract and 10 g of peptone in 1 liter (hereinafter, “L”) was transferred to a 500 mL Sakaguchi flask and sterilized at 115° C. for 15 minutes. This medium was then inoculated with one loopful of the culture broth of Empedobacter brevis strain FERM BP-8113 (Depositary institution: National Institute for Advanced Industrial Science and Technology, International Patent Organism Depositary, Address of depositary institution: Chuo Dai-6,1-1 Higashi 1-Chome, Tsukuba-shi, Ibaraki-ken, Japan, International deposit transfer date: Jul. 8, 2002) that had been cultured at 30° C. for 16 hours in the same medium, followed by shake culturing at 30° C. for 16 hours and 120 strokes/min.

Molecule | Formed peptide
CC[C@H](C)[C@H](N)C(=O)N[C@@H](CCSC)C(=O)O [L-Ile-L-Met] (H-Ile-Met-OH) | 8.3 mM
CSCC[C@H](NC(=O)[C@H](C)N)C(=O)O [L-Ala-L-Met] (H-Ala-Met-OH) | 68.3 mM
C[C@H](N)C(=O)N[C@@H](Cc1ccccc1)C(=O)O [L-Ala-L-Phe] | 62.4 mM
CC(C)C[C@H](NC(=O)[C@H](C)N)C(=O)O [L-Ala-L-Leu] (H-Ala-Leu-OH) | 38.2 mM
N[C@@H](CO)C(=O)N[C@@H](CO)C(=O)O [L-Ser-L-Ser] (H-Ser-Ser-OH) | 29.0 mM
CSCC[C@H](NC(=O)[C@@H](N)C(C)C)C(=O)O [L-Val-L-Met] (H-Val-Met-OH) | 10.5 mM
NCC(=O)N[C@@H](Cc1cnc[nH]1)C(=O)O [Gly-L-His] (H-Gly-His-OH) | 22.1 mM
CSCC[C@H](N)C(=O)N[C@@H](Cc1ccccc1)C(=O)O [L-Met-L-Phe] (H-Met-Phe-OH) | 28.5 mM
CC(C)C[C@H](NC(=O)[C@@H](N)[C@@H](C)O)C(=O)O [L-Thr-L-Leu] (H-Thr-Leu-OH) | 23.0 mM
C[C@H](N)C(=O)N[C@@H](CCCN=C(N)N)C(=O)O [L-Ala-L-Arg] (H-Ala-Arg-OH) | 72.1 mM
C[C@H](N)C(=O)N[C@@H](Cc1cnc[nH]1)C(=O)O [L-Ala-L-His] (H-Ala-His-OH) | 52.1 mM
C[C@H](N)C(=O)N[C@@H](CCC(N)=O)C(=O)O [L-Ala-L-Gln, L-alanyl-L-glutamine] (H-Ala-Gln-OH) | 68.0 mM
C[C@H](N)C(=O)N[C@@H](CO)C(=O)O [L-Ala-L-Ser] (H-Ala-Ser-OH) | 51.3 mM

Test system: enzyme (SP-Sepharose HP fraction) derived from Sphingobacterium sp. strain FERM BP-8124
Experiment: not given
Format: biochemical
Conditions: Table 15-2; carboxy 100 mM, L-Gln 150 mM, 0.33 units, pH 9.0, 25° C., 1.5 hours; 0.1% Tween-80 with L-Tyr-OMe
Procedure: The following procedure after centrifugal separation was carried out either on ice or at 4° C. Sphingobacterium sp. strain FERM BP-8124 (Depositary institution: National Institute for Advanced Industrial Science and Technology, International Patent Organism Depositary, Address of depositary institution: Chuo Dai-6,1-1 Higashi 1-Chome, Tsukuba-shi, Ibaraki-ken, Japan, International deposit date: Jul. 22, 2002) was cultured in the same manner as Example 21, and the microbial cells were collected by centrifugal separation (10,000 rpm, 15 minutes). After washing 2 g of microbial cells with 20 mM Tris-HCl buffer (pH 7.6), they were suspended in 8 ml of the same buffer and subjected to ultrasonic crushing treatment for 45 minutes at 195 W. This ultrasonic crushing liquid was then centrifuged (10,000 rpm, 30 minutes) to remove the crushed cell fragments and obtain an ultrasonic crushing liquid supernatant. This ultrasonic crushing liquid supernatant was dialyzed overnight against 20 mM Tris-HCl buffer (pH 7.6) followed by removal of the insoluble fraction by ultracentrifugation (50,000 rpm, 30 minutes) to obtain a soluble fraction in the form of the supernatant liquid. The resulting soluble fraction was applied to a Q-Sepharose HP column (manufactured by Amersham) pre-equilibrated with Tris-HCl buffer (pH 7.6), and the active fraction was collected from the non-adsorbed fraction. This active fraction was dialyzed overnight against 20 mM acetate buffer (pH 5.0) followed by removal of the insoluble fraction by centrifugal separation (10,000 rpm, 30 minutes) to obtain a dialyzed fraction in the form of the supernatant liquid. This dialyzed fraction was then applied to an SP-Sepharose HP column (manufactured by Amersham) pre-equilibrated with 20 mM acetate buffer (pH 5.0) to obtain the active fraction in which enzyme was eluted at a linear concentration gradient of the same buffer containing 0 tol M NaCl.
Substrate specificity was examined for enzyme derived from Sphingobacterium sp. strain FERM BP-8124 (Depositary institution: National Institute for Advanced Industrial Science and Technology, International Patent Organism Depositary, Address of depositary institution: Central. 6, 1-1-1 Higashi, Tsukuba City, Ibaraki Prefecture, Japan, International deposit date: Jul. 22, 2002). 100 μl of 100 mM borate buffer (pH 9.0) containing the various carboxy components at a final concentration of 100 mM and the various amine components at a final concentration of 150 mM shown in Tables 15-1 to 15-4, the SP-Sepharose HP fraction enzyme purified in Example 22 (addition of 0.33 units in the reaction liquid) and 10 mM EDTA were allowed to react at 25° C. for 1.5 hours.
In addition, hydrochlorides were used for all carboxy components. […]

Molecule | Produced peptide
NCC(=O)N[C@@H](CCC(N)=O)C(=O)O [Gly-L-Gln] (H-Gly-Gln-OH) | 61.1 mM
NC(=O)CC[C@H](NC(=O)[C@@H](N)CCCN=C(N)N)C(=O)O [L-Arg-L-Gln] (H-Arg-Gln-OH) | 17.2 mM
NC(=O)CC[C@H](NC(=O)[C@@H](N)CC(=O)O)C(=O)O [α-L-Asp-L-Gln] (H-Asp-Gln-OH) | 0.05 mM
NC(=O)CC[C@H](NC(=O)[C@@H](N)Cc1ccc(O)cc1)C(=O)O [L-Tyr-L-Gln] (H-Tyr-Gln-OH) | 0.6 mM
NC(=O)CC[C@H](NC(=O)[C@@H]1CCCN1)C(=O)O [L-Pro-L-Gln] (H-Pro-Gln-OH) | 1.8 mM
NC(=O)CC[C@H](NC(=O)[C@@H](N)Cc1ccccc1)C(=O)O [L-Phe-L-Gln] | 0.8 mM
CC[C@H](C)[C@H](N)C(=O)N[C@@H](CCC(N)=O)C(=O)O [L-Ile-L-Gln] (H-Ile-Gln-OH) | 6.4 mM
NC(=O)CC[C@H](NC(=O)[C@@H](N)CCC(N)=O)C(=O)O [L-Gln-L-Gln] (H-Gln-Gln-OH) | 0.1 mM
CC(C)[C@H](N)C(=O)N[C@@H](CCC(N)=O)C(=O)O [L-Val-L-Gln] (H-Val-Gln-OH) | 8.2 mM
CSCC[C@H](N)C(=O)N[C@@H](CCC(N)=O)C(=O)O [L-Met-L-Gln] (H-Met-Gln-OH) | 32.6 mM
C[C@@H](O)[C@H](N)C(=O)N[C@@H](CCC(N)=O)C(=O)O [L-Thr-L-Gln] (H-Thr-Gln-OH) | 36.1 mM
NC(=O)CC[C@H](NC(=O)[C@@H](N)CO)C(=O)O [L-Ser-L-Gln] (H-Ser-Gln-OH) | 12.9 mM

Test system: not listed separately
Experiment: Comparison of ability to catalyze peptide production with known enzymes
Conditions: 100 mM L-alanine methyl ester, 200 mM L-glutamine, pH 9.0, 25° C.; amount of enzyme added as in Table 14
Procedure: The peptide formation ability of the present enzyme was compared with that of known enzymes. Carboxypeptidase Y described in EP 278787A1 and the thiol endopeptidases (ficin, papain, bromelain and chymopapain) described in EP 359399B1 were used for the known enzymes, and they were used in the form of purified enzymes manufactured by Sigma. […] The reaction was carried out by adding enzyme to 100 μl of borate buffer (pH 9.0) containing 100 mM L-alanine methyl ester and 200 mM L-glutamine and allowing to react at 25° C.
Furthermore, enzyme dissolved in 10 mM acetate buffer (pH 5.0) containing 1 mM EDTA was used for the carboxypeptidase, while enzyme dissolved in 10 mM acetate buffer (pH 5.0) containing 2 mM EDTA, 0.1 M KCl and 5 mM dithiothreitol was used for the thiol endopeptidase.

Molecule | L-Ala-L-Gln production rate (mM/mm)
Chymopapain: thiol endopeptidase described in EP 359399B1, purified enzyme manufactured by Sigma | 0.0100 mM/mm
Ficin | 0.0096 mM/mm
Bromelain | 0.0062 mM/mm
Papain: thiol endopeptidase described in EP 359399B1, purified enzyme manufactured by Sigma (protein, UniProt P00784 134-345, looked up) Papain: IPEYVDWRQKGAVTPVKNQGSCGSCWAFSAVVTIEGIIKIRTGNLNEYSEQELLDCDRRSYGCNGGYPWSALQLVAQYGIHYRNTYPYEGVQRYCRSREKGPYAAKTDGVRQVQPYNEGALLYSIANQPVSVVLEAAGKDFQLYRGGIFVGPCGNKVDHAVAAVGYGPNYILIKNSWGTGWGENGYIRIKRGTGNSYGVCGLYTSSFYPVKN | 0.0106 mM/mm
Carboxypeptidase Y: known enzyme described in EP 278787A1, purified enzyme manufactured by Sigma (protein, UniProt P00729 112-532, looked up) Carboxypeptidase Y: KIKDPKILGIDPNVTQYTGYLDVEDEDKHFFFWTFESRNDPAKDPVILWLNGGPGCSSLTGLFFELGPSSIGPDLKPIGNPYSWNSNATVIFLDQPVNVGFSYSGSSGVSNTVAAGKDVYNFLELFFDQFPEYVNKGQDFHIAGESYAGHYIPVFASEILSHKDRNFNLTSVLIGNGLTDPLTQYNYYEPMACGEGGEPSVLPSEECSAMEDSLERCLGLIESCYDSQSVWSCVPATIYCNNAQLAPYQRTGRNVYDIRKDCEGGNLCYPTLQDIDDYLNQDYVKEAVGAEVDHYESCNFDINRNFLFAGDWMKPYHTAVTDLLNQDLPILVYAGDKDFICNWLGNKAWTDVLPWKYDEEFASQKVRNWTASITDEVAGEVKSYKHFTYLRVFNGGHMVPFDVPENALSMVNEWIHGGFSL | 0.0257 mM/mm
